The source of these data is US8791132B2, “Compounds and methods for treatment of hypertension” (Medivation Technologies, Inc., priority 2011, dated 2014).

The structures appear in SMILES notation. Where two headings read alike, the source gives them in different places.

Assay [1] addresses T1, human recombinant adrenergic α2B receptor (Homo sapiens, UniProt P18089).
T1 construct: expressed in transfected cells; host or cells: CHO-K1
T1 sequence (P18089 1-450): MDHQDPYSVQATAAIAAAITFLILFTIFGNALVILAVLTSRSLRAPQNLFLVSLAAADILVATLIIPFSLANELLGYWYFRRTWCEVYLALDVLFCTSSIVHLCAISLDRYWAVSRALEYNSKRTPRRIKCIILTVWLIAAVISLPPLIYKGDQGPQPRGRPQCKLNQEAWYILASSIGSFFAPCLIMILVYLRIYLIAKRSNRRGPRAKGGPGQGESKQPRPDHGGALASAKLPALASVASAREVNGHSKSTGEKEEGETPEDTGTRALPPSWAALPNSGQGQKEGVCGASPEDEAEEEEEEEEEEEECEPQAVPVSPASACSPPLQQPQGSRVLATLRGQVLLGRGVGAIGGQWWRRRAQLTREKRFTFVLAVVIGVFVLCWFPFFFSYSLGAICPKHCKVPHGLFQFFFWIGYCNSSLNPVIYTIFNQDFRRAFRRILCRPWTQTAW
The assay is described as follows: Radioligand binding, adrenergic α2B ([3H]Rauwolscine). Particulars: [3H]Rauwolscine; for Percentage inhibition of ligand binding, Adrenergic α2B: 0.03 µM. In outline:
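Receptor expressed in CHO-K1 cells, assayed in 50 mM Tris-HCl pH 7.4 with 12.5 mM MgCl2, 1 mM EDTA and 0.2% BSA. Compounds were incubated with 2.5 nM [3H]Rauwolscine for 60 min at 25° C; 10 μM Prazosin defined non-specific binding. Filter counting gave percent inhibition of specific binding.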

The target of assay [2] is T2, human recombinant adrenergic α2A receptor (Homo sapiens, UniProt P08913).
T2 construct: expressed in transfected cells; host or cells: insect Sf9 cells
T2 sequence (P08913 1-465): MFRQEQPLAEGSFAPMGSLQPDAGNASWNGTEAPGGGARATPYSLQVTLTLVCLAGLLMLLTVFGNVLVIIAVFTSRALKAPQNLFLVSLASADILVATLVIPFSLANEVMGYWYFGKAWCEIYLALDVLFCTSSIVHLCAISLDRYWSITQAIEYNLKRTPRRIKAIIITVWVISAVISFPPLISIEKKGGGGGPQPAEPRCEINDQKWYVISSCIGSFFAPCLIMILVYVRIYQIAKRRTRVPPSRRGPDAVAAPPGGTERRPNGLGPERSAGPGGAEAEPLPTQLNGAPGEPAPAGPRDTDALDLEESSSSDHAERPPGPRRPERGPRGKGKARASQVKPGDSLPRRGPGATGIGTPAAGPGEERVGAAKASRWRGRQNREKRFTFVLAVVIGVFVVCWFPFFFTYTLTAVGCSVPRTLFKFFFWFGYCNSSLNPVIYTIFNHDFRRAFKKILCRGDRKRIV
Briefly: Radioligand binding, adrenergic α2A ([3H]MK-912). Particulars: [3H]MK-912; for Percentage inhibition of ligand binding, Adrenergic α2A: 0.1 µM. In outline: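 Sf9-expressed receptor was incubated with compound for 60 min at 25 °C in modified Tris-HCl buffer, pH 7.4. Nonspecific binding was taken as that remaining with 10 μM WB-4101.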

The target of assay [3] is T3, rat adrenergic α1B receptor (Rattus norvegicus, UniProt P15823).
T3 construct: rat adrenergic α1B receptor obtained from Wistar Rat liver; from tissue; host or cells: Wistar rat liver
T3 sequence (P15823 1-515): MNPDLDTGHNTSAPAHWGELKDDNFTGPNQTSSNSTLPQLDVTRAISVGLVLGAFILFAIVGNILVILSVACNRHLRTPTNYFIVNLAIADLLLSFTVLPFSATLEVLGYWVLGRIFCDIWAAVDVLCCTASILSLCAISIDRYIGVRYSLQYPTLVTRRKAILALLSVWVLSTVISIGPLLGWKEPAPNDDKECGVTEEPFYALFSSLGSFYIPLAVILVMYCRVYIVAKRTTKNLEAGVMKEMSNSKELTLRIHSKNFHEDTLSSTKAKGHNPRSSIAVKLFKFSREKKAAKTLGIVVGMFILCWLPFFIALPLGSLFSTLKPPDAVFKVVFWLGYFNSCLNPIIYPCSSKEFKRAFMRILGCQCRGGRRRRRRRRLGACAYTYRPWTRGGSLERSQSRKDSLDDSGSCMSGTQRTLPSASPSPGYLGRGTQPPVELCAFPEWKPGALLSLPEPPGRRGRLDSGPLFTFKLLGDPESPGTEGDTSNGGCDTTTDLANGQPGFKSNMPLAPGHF
The assay is described as follows: Radioligand binding, adrenergic α1B ([3H]Prazosin). Particulars: [3H]Prazosin; for Percentage inhibition of ligand binding, Adrenergic α1B: 0.1 µM. In outline: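 Incubation ran 60 min at 25 °C in Tris-HCl buffer (50 mM, pH 7.4, 0.5 mM EDTA) with Wistar rat liver α1B receptor. 10 μM phentolamine set non-specific binding.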

[4] abbreviates: read-out: Percentage inhibition of ligand binding, Adrenergic α2B (0.03 μM), compound at 0.03 μM, repeat datapoints each shown.
The mark [5] stands for this setting: read-out: Percentage inhibition of ligand binding, Adrenergic α2A (0.1 μM), compound at 0.1 μM, repeat datapoints each shown.
The mark [6] stands for this setting: read-out: Percentage inhibition of ligand binding, Adrenergic α1B (0.1 μM), compound at 0.1 μM, repeat datapoints each shown.
The mark [7] stands for this setting: compound at 0.03 μM, repeat assays, each datapoint shown, read-out: Percentage inhibition of ligand binding, Adrenergic α2B.
Where [8] appears, read: compound at 0.1 μM, repeat assays, each datapoint shown, read-out: Percentage inhibition of ligand binding, Adrenergic α2A.
The mark [9] stands for this setting: compound at 0.1 μM, repeat assays, each datapoint shown, read-out: Percentage inhibition of ligand binding, Adrenergic α1B.
The mark [10] stands for this setting: compound at 0.03 μM, repeat assays, each datapoint shown.
Where [11] appears, read: compound at 0.1 μM, repeat assays, each datapoint shown.

A word on the inhibition: it is the relative decrease from the control value, in per cent. For `Cc1ccc2c(c1)c1c(n2CC(N=[N+]=[N-])c2ccc(C(N)=O)nc2)CCN(C)C1` (stereo not drawn) [V-22, 5-[1-azido-2-(2,8-dimethyl-1,2,3,4-tetrahydro-pyrido[4,3-b]indol-5-yl)-ethyl]-pyridine-2-carboxylic acid amide], the inhibition at 0.03 µM in assay [1] (setting [4]) was 90%. For the same molecule, the inhibition at 0.1 µM came to 18% in assay [2] (setting [5]) and 28% in assay [3] (setting [6]).

With `Cc1ccc2c(c1)c1c(n2CC(N=[N+]=[N-])c2ccc(F)cc2)CCN2CCCC12` (stereo not drawn) [V-23, 7-(2-azido-2-(4-fluorophenyl)ethyl)-10-methyl-2,3,5,6,7,11c-hexahydro-1H-indolizino[7,8-b]indole], the inhibition at 0.03 µM in assay [1] (setting [4]) worked out at 105%. The figures for the inhibition at 0.1 µM in assay [2] (setting [5]) and in assay [3] (setting [6]) were 109% and 94%, respectively.

With `CN1CCc2c(c3cc(C(F)(F)F)ccc3n2CC(O)c2ccncc2)C1` (stereo not drawn) [compound 6, 2-(2-methyl-8-(trifluoromethyl)-3,4-dihydro-1H-pyrido[4,3-b]indol-5(2H)-yl)-1-(pyridin-4-yl)ethanol], the inhibition at 0.03 µM in assay [1] (setting [7]) worked out at 62%. For the same molecule, the inhibition at 0.1 µM in assay [2] (setting [8]) is 2%; in assay [3] (setting [9]), 8%.

`Cc1ccc2c(c1)c1c(n2CC(O)c2cccnc2)CCNC1` (stereo not drawn) [compound 9, 2-(8-methyl-1,2,3,4-tetrahydro-pyrido[4,3-b]indol-5-yl)-1-pyridin-3-yl-ethanol]: the “Percentage inhibition of ligand binding, Adrenergic α2B” value (“Percentage inhibition … Adrenergic α2B” for short) in assay [1] (setting [10]) is 36%. In addition, the “Percentage inhibition of ligand binding, Adrenergic α2A” value (shortened to “Percentage inhibition … Adrenergic α2A”) in assay [2] (setting [11]) is on record as −4%. Besides, in assay [3] (setting [11]), the “Percentage inhibition of ligand binding, Adrenergic α1B” value (“Percentage inhibition … Adrenergic α1B” below) was determined as 5%.

Regarding `Cc1ccc2c(c1)c1c(n2CC(O)c2ccncc2)CCN(C)CC1` (stereo not drawn) [compound 13, 2-(3,9-dimethyl-2,3,4,5-tetrahydroazepino[4,5-b]indol-6(1H)-yl)-1-(pyridin-4-yl)ethanol], in assay [1] (setting [10]), the “Percentage inhibition … Adrenergic α2B” value is given as 92%. Besides, the “Percentage inhibition … Adrenergic α2A” value in assay [2] (setting [11]) came out at 18%. For the same molecule, the inhibition at 0.1 µM in assay [3] (setting [9]) was 83%.

`CN1CCc2c(n(CC(O)c3ccncc3)c3ccc(Cl)cc23)CC1` (stereo not drawn) [compound 15, 2-(9-chloro-3-methyl-2,3,4,5-tetrahydroazepino[4,5-b]indol-6(1H)-yl)-1-(pyridin-4-yl)ethanol]: in assay [1] (setting [10]), the “Percentage inhibition … Adrenergic α2B” value is listed as 93%. For the same molecule, the “Percentage inhibition … Adrenergic α2A” value in assay [2] (setting [11]) turned out to be 19%. Further, in assay [3] (setting [9]), the inhibition at 0.1 µM was determined as 93%.

With `CN1Cc2c(n(CC(O)c3ccncc3)c3ncccc23)C(C)(C)C1` (stereo not drawn) [compound 17, 1-pyridin-4-yl-2-(6,8,8-trimethyl-5,6,7,8-tetrahydro-1,6,9-triaza-fluoren-9-yl)-ethanol], the inhibition at 0.03 µM in assay [1] (setting [7]) was 37%. In addition, the “Percentage inhibition … Adrenergic α2A” value in assay [2] (setting [11]) is reported as 19%. Further, in assay [3] (setting [9]), the inhibition at 0.1 µM stood at 18%.

Consider `Cc1ccc2c(c1)c1c(n2CC(O)c2cccnc2)CN(C)CC1` (stereo not drawn) [compound 43, 2-(2,6-dimethyl-1,2,3,4-tetrahydro-β-carbolin-9-yl)-1-pyridin-3-yl-ethanol], for which the “Percentage inhibition … Adrenergic α2B” value in assay [1] (setting [10]) is recorded as 24%. For the same molecule, in assay [2] (setting [11]), the “Percentage inhibition … Adrenergic α2A” value is −1%. The “Percentage inhibition … Adrenergic α1B” value in assay [3] (setting [11]) is 21%.

For the molecule `COc1cccc2c3c(n(CC(O)c4ccncc4)c12)CCN(C)C3` (stereo not drawn) [compound 44, 2-(6-methoxy-2-methyl-3,4-dihydro-1H-pyrido[4,3-b]indol-5(2H)-yl)-1-(pyridin-4-yl)ethanol], in assay [1] (setting [10]), the “Percentage inhibition … Adrenergic α2B” value is given as 56%. For the same molecule, the “Percentage inhibition … Adrenergic α2A” value in assay [2] (setting [11]) was −1%. Besides, in assay [3] (setting [11]), the “Percentage inhibition … Adrenergic α1B” value is on record as −3%.

Regarding `COc1ccc(C(O)Cn2c3c(c4cc(C)ccc42)CN(C)CC3)cn1` (stereo not drawn) [compound 51, 2-(2,8-dimethyl-1,2,3,4-tetrahydro-pyrido[4,3-b]indol-5-yl)-1-(6-methoxy-pyridin-3-yl)-ethanol], the “Percentage inhibition … Adrenergic α2B” value in assay [1] (setting [10]) is 82%. Also, the “Percentage inhibition … Adrenergic α2A” value in assay [2] (setting [11]) is 20%. Further, the “Percentage inhibition … Adrenergic α1B” value in assay [3] (setting [11]) came to 43%.

In the case of `Cc1cnc2c(c1)c1c(n2CC(O)c2ccncc2)CCN(C)C1` (stereo not drawn) [compound 55, 2-(3,6-dimethyl-5,6,7,8-tetrahydro-1,6,9-triaza-fluoren-9-yl)-1-pyridin-4-yl-ethanol], in assay [1] (setting [10]), the “Percentage inhibition … Adrenergic α2B” value came out at 63%. The inhibition at 0.1 µM in assay [2] (setting [8]) was 13%. The “Percentage inhibition … Adrenergic α1B” value in assay [3] (setting [11]) was 37%.

In the case of `Cc1cnc2c(c1)c1c(n2CC(O)c2ccncc2)CCNC1` (stereo not drawn) [compound 58, 2-(3-methyl-5,6,7,8-tetrahydro-1,6,9-triaza-fluoren-9-yl)-1-pyridin-4-yl-ethanol], the “Percentage inhibition … Adrenergic α2B” value in assay [1] (setting [10]) is 26%. Also, the “Percentage inhibition … Adrenergic α2A” value in assay [2] (setting [11]) is listed as −1%. In addition, the “Percentage inhibition … Adrenergic α1B” value in assay [3] (setting [11]) is on record as 21%.

In the case of `Cc1ccc2c(c1)c1c(n2CC(O)c2cccnc2)CCN(C)C1` (stereo not drawn) [compound 62], in assay [1] (setting [7]), the inhibition at 0.03 µM was 76%. Moreover, the inhibition at 0.1 µM in assay [2] (setting [8]) came to 1%; in assay [3] (setting [9]), 16%.

With `COc1ccc(C(C)(O)Cn2c3c(c4cc(C)ccc42)CN(C)CC3)cn1` (stereo not drawn) [compound 64, 1-(2,8-dimethyl-1,2,3,4-tetrahydro-pyrido[4,3-b]indol-5-yl)-2-(6-methoxy-pyridin-3-yl)-propan-2-ol], the inhibition at 0.03 µM in assay [1] (setting [7]) was 62%. In addition, the values for the inhibition at 0.1 µM in assay [2] (setting [8]) and in assay [3] (setting [9]) were 12% and 25%, respectively.

For `CN1CCc2c(c3ccc(C(F)(F)F)cc3n2CC(O)c2ccncc2)C1` (stereo not drawn) [compound 65, 2-(2-methyl-7-(trifluoromethyl)-3,4-dihydro-1H-pyrido[4,3-b]indol-5(2H)-yl)-1-(pyridin-4-yl)ethanol], the inhibition at 0.03 µM in assay [1] (setting [7]) amounted to 64%. Further, the figures for the inhibition at 0.1 µM in assay [2] (setting [8]) and in assay [3] (setting [9]) were -3% and -13%, respectively.

For the molecule `COc1ccc(C(O)Cn2c3c(c4cc(C)ccc42)CN(C)CC3)cc1OC` (stereo not drawn) [compound 66, 1-(3,4-dimethoxy-phenyl)-2-(2,8-dimethyl-1,2,3,4-tetrahydro-pyrido[4,3-b]indol-5-yl)-ethanol], the inhibition at 0.03 µM in assay [1] (setting [7]) came to 69%. The inhibition at 0.1 µM in assay [2] (setting [8]) turned out to be 15%; in assay [3] (setting [9]), 48%.

Regarding `Cc1ccc2c(c1)c1c(n2CC(O)c2ccc(C(=O)O)cc2)CCN(C)C1` (stereo not drawn) [compound 67, 4-[2-(2,8-dimethyl-1,2,3,4-tetrahydro-pyrido[4,3-b]indol-5-yl)-1-hydroxy-ethyl]-benzoic acid], in assay [1] (setting [7]), the inhibition at 0.03 µM came to 17%. For the same molecule, the inhibition at 0.1 µM was -7% in assay [2] (setting [8]) and 12% in assay [3] (setting [9]).
